From patent publication US20020111274A1, “1-alkyl-3-[1-(substituted phenyl) benzotriazol-6-yl] uracils” (BASF Aktiengesellschaft, priority 2000, published 2002)

Assays:
Design in all cases: scale not given here
CASOB Sicklepod = assay: Preemergence herbicidal evaluation, CASOB; type: in vivo, Cassia obtusifolia, L.; conditions: preemergence
Method in brief: (§1)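 Seeds mixed with potting soil were planted on about one inch of soil in cups, then sprayed with the test compound in aqueous acetone at roughly 0.013 to 0.800 kg per hectare. Plants were kept under standard greenhouse care and injury was rated four to five weeks after treatment.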

ABUTH Velvetleaf = assay: Postemergence herbicidal evaluation, ABUTH; type: in vivo, Abutilon theophrasti, Medic.; conditions: postemergence spray, rated about two-three weeks after treatment
Method in brief: (§2)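 For this test, compound in an 80/20 acetone/water vehicle with 1.0% seed oil was sprayed over two-week-old seedlings at about 0.006 to 0.400 kg per hectare. Injury was assessed visually two to three weeks on.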

ORYSAT Rice, Tebonnet [1] = assay: Postemergence herbicidal evaluation, ORYSAT; type: in vivo, Oryza sativa, (L.); conditions: postemergence spray, rated about two-three weeks after treatment
Method in brief: as §2

ORYSAT Rice, Tebonnet [2] = assay: Preemergence herbicidal evaluation, ORYSAT; type: in vivo, Oryza sativa, (L.); conditions: preemergence
Method in brief: as §1

GLXMAW Soybean, Williams = assay: Postemergence herbicidal evaluation, GLXMAW; type: in vivo, Glycine max, (L.) Merr. cv Williams; conditions: postemergence spray, rated about two-three weeks after treatment
Method in brief: as §2

AMBEL Ragweed, Common = assay: Preemergence herbicidal evaluation, AMBEL; type: in vivo, Ambrosia artemisifolia, L.; conditions: preemergence
Method in brief: as §1

ECHOG Barnyardgrass = assay: Postemergence herbicidal evaluation, ECHOG; type: in vivo, Echinochloa crus-galli, (L.) Beau; conditions: postemergence spray, rated about two-three weeks after treatment
Method in brief: as §2

[3] = tested on: IPOHE Morningglory, Ivyleaf; assay: Postemergence herbicidal evaluation, IPOHE; type: in vivo, Ipomoea hederacea, (L.) Jacq.; conditions: postemergence spray, rated about two-three weeks after treatment
Method in brief: as §2

[4] = tested on: CHEAL Lambsquarters, Common; assay: Postemergence herbicidal evaluation, CHEAL; type: in vivo, Chenopodium album, L.; conditions: postemergence spray, rated about two-three weeks after treatment
Method in brief: as §2

GALAP Galium = assay: Postemergence herbicidal evaluation, GALAP; type: in vivo, Galium aparine; conditions: postemergence spray, rated about two-three weeks after treatment
Method in brief: as §2

[5] = tested on: TRZAWR Wheat, Winter, cv Riband; assay: Postemergence herbicidal evaluation, TRZAWR; type: in vivo, Triticum aestivum; conditions: postemergence spray, rated about two-three weeks after treatment
Method in brief: as §2

ZEAMX Corn, Field = assay: Postemergence herbicidal evaluation, ZEAMX; type: in vivo, Zea mays, L. (Sammel-Bezeichnung); conditions: postemergence spray, rated about two-three weeks after treatment
Method in brief: as §2

COc1ccccc1-n1nnc2cc(F)c(-n3c(=O)cc(C(F)(F)F)n(C)c3=O)cc21 [Example 16, 3-[5-Fluoro-1-(2-Methoxyphenyl)-1H-1,2,3-Benzotriazol-6-yl]-1-Methyl-6-(Trifluoromethyl)-2,4(1H,3H)-Pyrmidinedione]
CASOB herbicidal rating (CASOB Sicklepod; rate 0.016 kg/ha): 0.0
CASOB herbicidal rating (CASOB Sicklepod; rate 0.032 kg/ha): 0.0
CASOB herbicidal rating (CASOB Sicklepod; rate 0.062 kg/ha): 9.0
CASOB herbicidal rating (CASOB Sicklepod; rate 0.125 kg/ha): 9.0
Postemergence herbicidal rating ABUTH (ABUTH Velvetleaf; 0.008 kg/ha): 9.0
Postemergence herbicidal rating ABUTH (ABUTH Velvetleaf; 0.016 kg/ha): 9.0
Postemergence herbicidal rating ABUTH (ABUTH Velvetleaf; 0.032 kg/ha): 9.0
Postemergence herbicidal rating ABUTH (ABUTH Velvetleaf; 0.062 kg/ha): 9.0
Postemergence herbicidal rating ORYSAT (ORYSAT Rice, Tebonnet [1]; 0.008 kg/ha): 2.5
Postemergence herbicidal rating ORYSAT (ORYSAT Rice, Tebonnet [1]; 0.016 kg/ha): 3.0
Postemergence herbicidal rating ORYSAT (ORYSAT Rice, Tebonnet [1]; 0.032 kg/ha): 3.0
Postemergence herbicidal rating ORYSAT (ORYSAT Rice, Tebonnet [1]; 0.062 kg/ha): 4.0
ORYSAT herbicidal rating (ORYSAT Rice, Tebonnet [2]; rate 0.016 kg/ha): 7.0
ORYSAT herbicidal rating (ORYSAT Rice, Tebonnet [2]; rate 0.032 kg/ha): 7.0
ORYSAT herbicidal rating (ORYSAT Rice, Tebonnet [2]; rate 0.062 kg/ha): 9.0
ORYSAT herbicidal rating (ORYSAT Rice, Tebonnet [2]; rate 0.125 kg/ha): 9.0
Postemergence herbicidal rating GLXMAW (GLXMAW Soybean, Williams; 0.008 kg/ha): 5.0
Postemergence herbicidal rating GLXMAW (GLXMAW Soybean, Williams; 0.016 kg/ha): 5.0
Postemergence herbicidal rating GLXMAW (GLXMAW Soybean, Williams; 0.032 kg/ha): 6.0
Postemergence herbicidal rating GLXMAW (GLXMAW Soybean, Williams; 0.062 kg/ha): 7.5
AMBEL herbicidal rating (AMBEL Ragweed, Common; rate 0.016 kg/ha): 6.0
AMBEL herbicidal rating (AMBEL Ragweed, Common; rate 0.032 kg/ha): 9.0
AMBEL herbicidal rating (AMBEL Ragweed, Common; rate 0.062 kg/ha): 9.0
AMBEL herbicidal rating (AMBEL Ragweed, Common; rate 0.125 kg/ha): 9.0
Postemergence herbicidal rating ECHCG (ECHOG Barnyardgrass; 0.008 kg/ha): 2.0
Postemergence herbicidal rating ECHCG (ECHOG Barnyardgrass; 0.016 kg/ha): 2.0
Postemergence herbicidal rating ECHCG (ECHOG Barnyardgrass; 0.032 kg/ha): 3.0
Postemergence herbicidal rating ECHCG (ECHOG Barnyardgrass; 0.062 kg/ha): 5.0
Postemergence herbicidal rating IPOHE ([3]; 0.008 kg/ha): 5.0
Postemergence herbicidal rating IPOHE ([3]; 0.016 kg/ha): 5.0
Postemergence herbicidal rating IPOHE ([3]; 0.032 kg/ha): 9.0
Postemergence herbicidal rating IPOHE ([3]; 0.062 kg/ha): 9.0
Postemergence herbicidal rating CHEAL ([4]; 0.008 kg/ha): 5.0
Postemergence herbicidal rating CHEAL ([4]; 0.016 kg/ha): 5.0
Postemergence herbicidal rating CHEAL ([4]; 0.032 kg/ha): 6.0
Postemergence herbicidal rating CHEAL ([4]; 0.062 kg/ha): 8.0
Postemergence herbicidal rating GALAP (GALAP Galium; 0.008 kg/ha): 0.0
Postemergence herbicidal rating GALAP (GALAP Galium; 0.016 kg/ha): 3.0
Postemergence herbicidal rating GALAP (GALAP Galium; 0.032 kg/ha): 3.0
Postemergence herbicidal rating GALAP (GALAP Galium; 0.062 kg/ha): 4.0
Postemergence herbicidal rating TRZAWR ([5]; 0.008 kg/ha): 2.5
Postemergence herbicidal rating TRZAWR ([5]; 0.016 kg/ha): 3.0
Postemergence herbicidal rating TRZAWR ([5]; 0.032 kg/ha): 3.5
Postemergence herbicidal rating TRZAWR ([5]; 0.062 kg/ha): 5.5
Postemergence herbicidal rating ZEAMX (ZEAMX Corn, Field; 0.008 kg/ha): 5.5
Postemergence herbicidal rating ZEAMX (ZEAMX Corn, Field; 0.016 kg/ha): 6.0
Postemergence herbicidal rating ZEAMX (ZEAMX Corn, Field; 0.032 kg/ha): 6.0
Postemergence herbicidal rating ZEAMX (ZEAMX Corn, Field; 0.062 kg/ha): 6.0
